Laboratory results: publication PMC3904085 (Frontiers in Neuroscience, 2014)
Entries after “also recorded” stand apart in the source; their conditions may differ. Read-outs that look alike come from different tables or passages of the source.

Tests used:
[1] = Plasma and brain binding by equilibrium dialysis (unbound fraction); type: in vitro ADME; settings: rat, equilibrium dialysis at 1 μM
[2] = set-up: method as in earlier work; settings: ref Fitch et al., unpublished results; Anderson et al., under review; cited from earlier work
[3] = tested on: mice lacking OX2 receptors; test: DRL 36-s schedule of reinforcement in OX2 KO mice; type: in vivo, mouse; settings: for Lever Presses Mean / Reinforcers Mean: OX2 KO mice DRL-36-s, raw data
Text: (§1) Rats were acclimated to housing conditions for 4 days, followed by sham dosing once daily for 3 days, prior to the experiment. For DRL experiments, male Sprague–Dawley rats weighing between 300 and 350 g at the beginning of the behavioral experiments (Holtzman, Madison, WI) were housed in pairs. For mouse DRL studies, male C57Bl/6 mice (Taconic Farms, Hudson, NY) or mice lacking either OX1 or OX2 receptors, around 8 weeks of age, were obtained from private breeding colonies at Taconic Farms (Hudson, NY). OX1 and OX2 receptor knockout mice were generated using in vitro fertilization of embryos in C57Bl/6 female mice with sperm harvested from male mice obtained from the University of Texas Southwestern Medical Center (Dallas, TX), and backcrossed for at least 10 generations. Mice and rats were housed in separate colony rooms, which were maintained at 22°C and 60% relative humidity. For rat DRL experiments, water was available for a 20-min period following the daily behavioral session. Based on recommendations from the animal care and use committee, the mouse DRL assay was developed using food deprivation rather than water deprivation. […] All experiments were conducted during the light cycle and in compliance with the Guide for the Care and Use of Laboratory Animals under protocols approved by a local animal care and use committee.
(§2) The levers in these chambers were mounted on one wall with an adjacent food magazine next to the lever in the middle of the wall. A reinforced response caused a clicker apparatus to activate and the pellet feeder to deposit one 45-mg sucrose pellet (BioServ, Frenchtown, NJ) into the food magazine. The house light, which was mounted on the ceiling, was turned on when the session began, remained on throughout the entire session, and was turned off at the end of the session. Each experimental chamber was enclosed in a melamine sound-attenuating cubicle and equipped with a white noise generator to provide masking noise.
(§3) Each mouse was initially trained under a variable time 60-s operant schedule for 5 days, followed by fixed ratio-1 ratio schedule for 5 days. After the mice had acquired lever-pressing behavior, they were trained during daily DRL 6-s sessions for ~1 week, then mice progressed through weekly ascending DRL requirements (12, 18, 24, 30 s) before moving to DRL 36-s sessions. […] Experimental sessions lasted for 45 min and were conducted 5 days/week during light hours.
(§4) Drugs were administered to the animals once or twice weekly with at least 1 week between subsequent drugs to minimize possible carryover effects. Drug treatments were administered on Tuesdays and Fridays. No treatments were administered on other test days. Wednesdays were control days. “Control” behavior was calculated as the pooled mean lever presses or reinforcers received during Wednesday sessions across all Wednesdays for the duration of each study. Performance was normalized to percent of control by dividing total responses (or reinforcers) for each drug or vehicle treatment by the mean number of responses (reinforcers) in the respective pooled control condition, multiplied by 100.
(§5) The data analyses were conducted on the raw response and reinforcement data. All behavioral data are expressed as the mean ± s.e.m. normalized to the control condition.

[4] = tested on: mice lacking OX1 receptors; test: DRL 36-s schedule of reinforcement in OX1 KO mice; type: in vivo, mouse; settings: for Lever Presses Mean / Reinforcers Mean: OX1 KO mice DRL-36-s, raw data
Text: as §1, §2, §3, §4, §5

C57Bl/6 mice = test: DRL 36-s schedule of reinforcement in wild-type mice; type: in vivo, mouse; settings: for Lever Presses Mean / Reinforcers Mean: WT mice DRL-36-s, raw data
Text: as §2, §3, §4, §5

Sprague–Dawley rats = test: DRL 72-s schedule of reinforcement in rats; type: in vivo, rat; settings: for Lever Presses Mean / Reinforcers Mean: HSD rats DRL-72-s, raw data
Text: Each chamber was enclosed in a melamine sound-attenuating cubicle. A white noise generator provided masking noise. The interior of each chamber consisted of three levers mounted on one wall with a house light mounted on the opposite wall. The house light was turned on at initiation of each test session and was turned off at the termination of each session. A water access port was situated next to the lever in the middle of the wall, wherein a reinforced response caused a clicker apparatus to sound paired with a dipper (0.02-ml cup) to be lifted from a water trough to an opening in the floor of the access port for 4 s.
Rats were initially trained under an alternative fixed ratio 1 water reinforcement schedule with a fixed 1-min time schedule for automatic reinforcement. Thus, each response was reinforced, with water also provided every minute in the absence of a response. […] Following acquisition of lever-pressing behavior, rats were trained daily on DRL 18-s sessions for ~2 weeks, following which they were advanced to DRL 72-s sessions. Responding on these sessions became stable after ~8 weeks. Experimental test sessions lasted for 1 h and were conducted 5 days/week during light hours.
as §4, §5

[5] = tested on: c-Fos protein in rat medial prefrontal cortex; test: Restraint-stress-induced c-Fos activation (ELISA); settings: 30 mg/kg
Procedure: Thirty min later, rats were restrained in a rigid plastic flat-bottom restraint tube (Braintree Scientific, Inc.; Braintree, MA, USA) for 20 min. After the 20 min stress period, rats were moved to a new cage and housed individually. Rats were sacrificed 2 h after stress onset. […] Immediately after sacrifice, brains were removed, the medial prefrontal cortex (mPFC), a brain area implicated in the pathophysiology of depression, was dissected from both hemispheres and frozen in 1.5 ml centrifuge tubes in dry ice, and stored at −80°C for later analysis.
Frozen mPFC tissues were removed from the −80°C freezer and placed on ice. Tissue was homogenized with a dounce homogenizer. The nuclear extract was prepared from the homogenized samples as per manufacturer's instructions using a CHEMICON ®Nuclear Extraction Kit (Millipore; Billerica, MA, USA). Protein concentrations were determined in the nuclear extracts using the Pierce BCA Protein Assay kit (Pierce Biotechnology, Inc., Rockford, IL, USA). Nuclear fractions were then assayed for Fos protein levels using the Pierce c-Fos Transcription Factor Kit (Pierce Biotechnology, Inc., Rockford, IL, USA), according to the manufacturer's instructions. […] Data were analyzed and plotted using GraphPad Prism (GraphPad Software, Inc.; La Jolla, CA, USA).

[6] = Rat exposure (plasma and brain pharmacokinetics); type: in vivo, Sprague–Dawley rats; settings: for concentration at 2 h / Cmax / Tmax / AUC(0-t): male, Sprague-Dawley; for AUC(0-t): read-out: AUC0–6 h
Procedure: Two cohorts of rats were used in each study, with samples taken from one cohort at 0.5, 1, and 2 h post-dose, and samples taken from the second cohort at 1.5, 4, and 6 h post-dose. The first cohort of animals was sacrificed at 2 h post-dose, and the second at 6 h post-dose to allow for collection of brain samples.

[7] = mice lacking OX1 receptors, DRL-36-s, 20 mg/kg
[8] = 30 mg/kg PO, two hours post treatment, Ctotal × Fu

Cl.O=S(=O)(c1ccc(F)cc1)N(Cc1ncc[nH]1)c1ccccc1-c1ccccc1 [LSN2424100, N-((1H-imidazol-2-yl)methyl)-N-([1,1′-biphenyl]-2-yl)-4-fluorobenzenesulfonamide hydrochloride]
fraction unbound at 1 μM ([1]; brain, read-out: Fu (fraction unbound) brain): 0.0089
fraction unbound at 1 μM ([1]; plasma, read-out: Fu (fraction unbound) plasma): 0.0341
Direct effects on food or water intake [2]: no direct effects
Lever Presses Mean ([3]; dose 10 mg/kg): 171.75
Reinforcers Mean ([3]; dose 10 mg/kg): 18.88
Lever Presses Mean ([3]; dose 20 mg/kg): 160.00
Reinforcers Mean ([3]; dose 20 mg/kg): 23.38
Lever Presses Mean ([3]; dose 40 mg/kg): 158.25
Reinforcers Mean ([3]; dose 40 mg/kg): 26.25
Change in reinforcers received or lever presses emitted, in words ([3]; mice lacking OX2 receptors, doses up to 40 mg/kg): no significant change
Lever Presses Mean ([4]; dose 3 mg/kg): 164.38
Reinforcers Mean ([4]; dose 3 mg/kg): 23.13
Lever Presses Mean ([4]; dose 10 mg/kg): 174.75
Reinforcers Mean ([4]; dose 10 mg/kg): 20.00
Lever Presses Mean ([4]; dose 20 mg/kg): 105.25
Reinforcers Mean ([4]; dose 20 mg/kg): 31.75
Lever presses emitted [4, 7]: 50 % of control
Reinforcers received [4, 7]: 200 % of control
Lever presses emitted (C57Bl/6 mice; C57Bl/6 mice DRL-36-s, 10 mg/kg IP): 50 % of control
Decrease in lever presses emitted, in words (C57Bl/6 mice; C57Bl/6 mice DRL-36-s, 20 mg/kg): did not reach statistical significance
Reinforcers received (maximum increase) (C57Bl/6 mice; C57Bl/6 mice DRL-36-s, doses 3–20 mg/kg IP, did not reach statistical significance): up to 225 % of control
Lever Presses Mean (C57Bl/6 mice; dose 3 mg/kg): 153.38
Reinforcers Mean (C57Bl/6 mice; dose 3 mg/kg): 15.00
Lever Presses Mean (C57Bl/6 mice; dose 10 mg/kg): 83.88
Reinforcers Mean (C57Bl/6 mice; dose 10 mg/kg): 18.75
Lever Presses Mean (C57Bl/6 mice; dose 20 mg/kg): 105.43
Reinforcers Mean (C57Bl/6 mice; dose 20 mg/kg): 28.00
Lever Presses Mean (Sprague–Dawley rats; dose 3 mg/kg): 67.86
Reinforcers Mean (Sprague–Dawley rats; dose 3 mg/kg): 10.71
Lever Presses Mean (Sprague–Dawley rats; dose 10 mg/kg): 48.14
Reinforcers Mean (Sprague–Dawley rats; dose 10 mg/kg): 12.14
Lever Presses Mean (Sprague–Dawley rats; dose 30 mg/kg IP): 56.00
Reinforcers Mean (Sprague–Dawley rats; dose 30 mg/kg IP): 15.43
Total lever presses emitted (Sprague–Dawley rats; rats DRL-72-s, 10 mg/kg, normalized to control days): 60 % of control
Lever presses made (Sprague–Dawley rats; rats DRL-72-s, 30 mg/kg IP): 70 % of control
Reinforcers received (Sprague–Dawley rats; rats DRL-72-s, 30 mg/kg IP): 170 % of control
Effect on restraint stress-induced increase in c-fos expression in prefrontal cortex ([5]; 30 mg/kg IP 30 min before 20 min restraint): attenuated; also recorded: blocked
c-fos protein levels in prefrontal cortex without stress (home cage) vs vehicle ([5]; 30 mg/kg IP, no restraint stress): no effect
Cu (unbound concentration) brain [6, 8]: 0.67 nM
Cu (unbound concentration) plasma [6, 8]: 3.52 nM
concentration at 2 h ([6]; brain, 30 mg/kg IP, two hours post treatment, read-out: Brain concentration): 77.2 ng/g
concentration at 2 h ([6]; brain, 30 mg/kg PO, two hours post treatment, read-out: Brain concentration): 33.5 ng/g
Cmax ([6]; plasma, 30 mg/kg IP): 1170 ng/mL
Tmax ([6]; plasma, 30 mg/kg IP): 30 min
AUC(0-t) ([6]; plasma, 30 mg/kg IP): 1300 ng·h/mL
concentration at 2 h ([6]; plasma, 30 mg/kg IP, two hours post treatment, read-out: Plasma concentration): 149 ng/mL
Cmax ([6]; plasma, 30 mg/kg PO): 196 ng/mL
Tmax ([6]; plasma, 30 mg/kg PO): 30 min
AUC(0-t) ([6]; plasma, 30 mg/kg PO): 269 ng·h/mL
concentration at 2 h ([6]; plasma, 30 mg/kg PO, two hours post treatment, read-out: Plasma concentration): 45.8 ng/mL
